US20260174766A1, “COMBINATION OF MENIN INHIBITOR(S) AND IMMUNOPROTEASOME INHIBITOR(S) FOR TREATMENT OF LEUKEMIA” (Medizinische Hochschule Hannover, priority 2022, published 2026)

Experiments:
[1] = system: human MLL-rearranged AML cell lines; experiment: Cell cycle analysis (EdU, % cells in S phase); type: cell-based; conditions: 100 nM PR-957, 24 hours; MOLM-13, MV-4;11, ML-2, KOPN-8; FIG. 1I
Description: Immunophenotyping of immature and mature cell compartments and of leukemic cells was performed as described before (Heidel et al., 2013; Heidel et al., 2012). The antibodies used for cell surface staining are provided in Table 1 at the end of section 2 (“Key Resource Table”). Cells were stained in PBS/1% FBS for 1.5 hours at 4° C. SYTOX® Blue Dead Cell Stain (Life Technologies, Darmstadt, Germany) was used to exclude dead cells. Flow cytometry was performed on a LSR-Fortessa or FACS Canto II cytometer (Becton Dickinson, Heidelberg, Germany). Cell cycle analysis was performed using the Click-iT™ Plus EdU Alexa Fluor™ 647 Assay Kit (Thermo Scientific, Waltham, MA, USA) as per the manufacturer's instructions.
Samples were labeled for FACs based analysis of cell cycle using the Click-iTR EdU assay. n=3 independent experiments; paired t test.

MLL-AF9 driven leukemia [2] = experiment: MLL-AF9 driven murine leukemia, in vivo PR-957 treatment of primary recipients; parameters: species or system mouse
Description: For induction of MLL-AF9 (MA9) driven leukemia we used established retroviral MSCV-GFP-based vectors to express MA9 in hematopoietic stem- and progenitor cells (Lineage-negative, Sca1-positive, Kit-positive [LSK] cells). In detail, bone marrow (BM) of LMP7+/+ or LMP7−/− littermates was isolated following standard procedures from 6-12-weeks-old mice. Lineage-depletion was performed using Streptavidin Particles Plus-DM (BD Biosciences, Heidelberg, Germany) and a DynaMag magnet (Thermo Fisher Scientific). Lineage-depleted cells were stained with streptavidin BV421, KIT AF647 and Sca-1 FITC or PE antibodies (all antibodies were received from Biolegend, San Diego, CA, USA) and then used for cell sorting. Sorted LSK cells were pre-stimulated on RetroNectin-coated plates (Takara Bio USA, Inc., Mountain View, CA, USA) in serum-free medium (StemSpan™ SFEM, StemCell Technologies, Vancouver, Canada) supplemented with SCF, TPO, IL-3 and IL-6 (all cytokines from PeproTech, Hamburg, Germany) overnight. 20 hours after stimulation, LSK cells were infected twice (8 hours gap) by spinfection (872 g, 1.5 hours, 33° C.) with retroviral particles containing the oncogenic vectors. Cells were analyzed 48 hours after first infection for GFP-expression using flow cytometry and 7.5×10^4 GFP+ cells were injected into sublethally irradiated (7 Gy, single dose) primary recipient mice (C57BL/6J; females). For serial transplantation of leukemia, 3×10^5 whole bone marrow cells of diseased animals were transplanted into secondary C57BL/6J recipient mice (sublethal irradiation, 7 Gy, single dose). […]
To characterize the effects of LMP7/PSMB8 inhibition in more detail, differentiation following PR-957 treatment was assessed. […]

MLL-AF9 driven leukemia [3] = experiment: Secondary transplantation of bone marrow from in vivo treated MLL-AF9 mice; parameters: species or system mouse; conditions: p<0.0001
Description: For induction of MLL-AF9 (MA9) driven leukemia we used established retroviral MSCV-GFP-based vectors to express MA9 in hematopoietic stem- and progenitor cells (Lineage-negative, Sca1-positive, Kit-positive [LSK] cells). In detail, bone marrow (BM) of LMP7+/+ or LMP7−/− littermates was isolated following standard procedures from 6-12-weeks-old mice. Lineage-depletion was performed using Streptavidin Particles Plus-DM (BD Biosciences, Heidelberg, Germany) and a DynaMag magnet (Thermo Fisher Scientific). Lineage-depleted cells were stained with streptavidin BV421, KIT AF647 and Sca-1 FITC or PE antibodies (all antibodies were received from Biolegend, San Diego, CA, USA) and then used for cell sorting. […] Cells were analyzed 48 hours after first infection for GFP-expression using flow cytometry and 7.5×10^4 GFP+ cells were injected into sublethally irradiated (7 Gy, single dose) primary recipient mice (C57BL/6J; females). […]
To characterize the effects of LMP7/PSMB8 inhibition in more detail, differentiation following PR-957 treatment was assessed. […] Next, the frequency of L-GMP (Lin− c-kit+ Sca1− CD34+ FcgR+) was assessed by flow cytometry, which have been described as the functionally relevant LSC population in MLL-AF9 driven leukemia. […]

[4] = system: leukemic stem cell (LSC), MLL-AF9; experiment: Limiting dilution assay of MLL-AF9 leukemic bone marrow cells treated ex vivo (ELDA); type: in vivo, mouse; conditions: 200 nM PR-957 ex vivo 48 hours

SMILES: COc1ccc(C[C@H](NC(=O)[C@H](C)NC(=O)CN2CCOCC2)C(=O)N[C@@H](Cc2ccccc2)C(=O)[C@]2(C)CO2)cc1 [PR-957, (2S)-3-(4-methoxyphenyl)-N-[(2S)-1-[(2S)-2-methyloxiran-2-yl]-1-oxo-3-phenylpropan-2-yl]-2-[[(2S)-2-[(2-morpholin-4-ylacetyl)amino]propanoyl]amino]propanamide]
- cell cycle activity (% of cells in S phase) [1]: reduced cell cycle activity
- leukemic cells in the peripheral blood and spleen size (MLL-AF9 driven leukemia [2]; 6 mg/kg i.v. QD 3 weeks (5 days per week), 3 days after discontinuation, vs diluent, FIG. 2B,C): reduced compared to diluent treated controls
- abundance of leukemic cells in the bone marrow (MLL-AF9 driven leukemia [2]; 6 mg/kg i.v. QD 3 weeks (5 days per week), control 69.8%, FIG. 2D): 42.9%
- frequency of L-GMP populations (MLL-AF9 driven leukemia [2]; 6 mg/kg i.v. QD 3 weeks, diluent control 3.57+/-0.52%, p=0.0087, FIG. 2E): 2.25+/−0.8%
- median survival of secondary recipients (MLL-AF9 driven leukemia [3]; recipients of PR-957 treated cells, control 21 days, FIG. 2G): 39.5 days
- leukemic cells in the peripheral blood (GFP+ WBC) of secondary recipients (MLL-AF9 driven leukemia [3]; two weeks after transplantation of bone marrow of treated mice, FIG. 2F): 1.6 Gpt/L
- reduction in LSC frequency compared to diluent treated controls [4]: more than log-fold reduction
- LSC frequency ([4]; ELDA, DMSO 1/4550, FIG. 2H,I): 1/57610
